Laboratory results reported in patent US5618675A, “Methods and compositions for detecting lipopolysaccharides using CAP18 fragments” (Panorama Research, Inc., dated 1997).
Where two headings read alike, the source gives them in different places.

How the values were obtained:
E. coli 0111:B4 LPS = test: Inhibition of RNIP-mediated hemagglutination by LPS; format: binding; conditions: #36-1 at 16 μg/ml, RNIP (#197) at 25 μg/ml preincubated with LPS 30 minutes
Description: (§1) For hemagglutination assays, erythrocytes were sensitized with LPS as follows. One ml of 1% erythrocyte suspension (human 0 type, C3H/HeN mouse or sheep) was mixed with 0.2 ml of LPS solution and incubated at 37° C. for 30 min, followed by washing with phosphate buffered saline (PBS), and then the concentration of suspension was adjusted to 1.0%. In the case of S-LPS, the solution was heated at 100° C. for 1 hour before sensitization of erythrocytes. […] Activity of CAP was expressed as a minimum agglutinating concentration (MAC) of CAP. According to the method of Kirikae et al. (1986) Microbiol. Immunol. 30:269-274, 50 μl of 2-fold serial dilution of Re-LPS was added to 50 μl of 1.0% rabbit erythrocyte suspension, and incubated at 37° C. for 3, hour. Minimum agglutinating concentration of Re-LPS was expressed as 1 HA unit.
(§2) Another series of experiments was performed to determine if the #36-1 and #197 (RNIP) peptides were capable of binding to LPS from various species of Gram-negative bacteria. For these experiments, sheep red blood cells were sensitized with Salmonella minnesota Re-LPS. Peptides #36-1 and #197 (RNIP) were preincubated with various preparations of LPS. Both peptides bind to a diverse group of lipopolysaccharides.
(§3) °Peptide #361 (16 μg/ml) and RNIP (#197) (25 μg/ml) were
(§4) preincubated with each LPS preparation at 370 for 30 minutes, and each
(§5) reaction mixture was added to sheep erythrocytes sensitized with RELPS.

E. coli 0127:B8 LPS = test: as above; format: binding; conditions: #36-1 at 16 μg/ml, RNIP (#197) at 25 μg/ml preincubated with LPS 30 minutes
Description: as §1, §2, §3, §4, §5

E. coli 055:B5 LPS = test: as above; format: binding; conditions: #36-1 at 16 μg/ml, RNIP (#197) at 25 μg/ml preincubated with LPS 30 minutes
Description: as §1, §2, §3, §4, §5

E. coli J5 LPS = test: as above; format: binding; conditions: #36-1 at 16 μg/ml, RNIP (#197) at 25 μg/ml preincubated with LPS 30 minutes
Description: as §1, §2, §3, §4, §5

[1] = system: Klebsiella pneumoniae LPS; test: as above; format: binding; conditions: #36-1 at 16 μg/ml, RNIP (#197) at 25 μg/ml preincubated with LPS 30 minutes
Description: as §1, §2, §3, §4, §5

[2] = system: Pseudomonas aeruginosa F-D Type I LPS; test: as above; format: binding; conditions: #36-1 at 16 μg/ml, RNIP (#197) at 25 μg/ml preincubated with LPS 30 minutes
Description: as §1, §2, §3, §4, §5

[3] = system: Salmonella minnesota R595 LPS; test: as above; format: binding; conditions: #36-1 at 16 μg/ml, RNIP (#197) at 25 μg/ml preincubated with LPS 30 minutes
Description: as §1, §2, §3, §4, §5

Human plasma = test: Prothrombin time (PT); format: biochemical; conditions: for inhibition of prothrombin time (PT), words: FIG. 14A
Description: Clotting method: Human plasma (Ortho plasma control, Ortho Diagnostic Co.). ATPP reagent (Organotechnika, Tokyo, Japan). Standard tissue factor, rabbit brain thromboplastin (Simplastin, ONO Pharmaceutical, Tokyo, Japan). Purified human factor VII, factor X, factor Xa (Sigma Chemical Co., St. Louis, Mo.). Russell Viper venom (RVV) and Echis carinatus venom (ECV, Sigma Co.).
Instrumentation: Clotting assays were carried out using a Fibrometer (BioQuest Division, Becton Dickinson; Cokeysville, […]., USA).
Human plasma (100 μl) was incubated with 100 μl of each peptide at 37° C. for 3 min., then 100 μl of tissue factor (250 μg/ml) CaCl2 was added and clotting time was measured.

prothrombin (factor II) = prothrombin (factor II) (Homo sapiens, UniProt P00734); test: Prothrombin activation by factor Xa; format: biochemical; conditions: Xa formed from tissue factor, factor VII and factor X, FIG. 17B
Description: Synthetic chromogenic substrate method: Substrate for factor Xa, S2222 (Kabi, Bz-Ile-Glu-Arg-pNA) was used. Substrate for factor II (prothrombin), Boc-Val-Pro-Arg-pNA (Sigma Chemical Co.) was used.
a) Factor X activation. Factor X (1 unit/ml, 400 μl) was activated by incubating with a reaction mixture of factor VII (1 unit/ml, 400 μl), tissue factor (5 mg/ml, 100 μl) and CaCl2 at 37° C. for 10 min.
b) Prothrombin (factor II) activation.
c) Hydrolysis of thrombin substrate. To 300 μl of the reaction mixture (step b), thrombin 60 μl of substrate and 240 μl of Tris buffer was added and further incubated for 15 min.

ddY mice = test: Tissue factor lethality model; format: in vivo; conditions: for Survival (%) / No. of Mice (dead/total) / Survival time: Tissue factor 1.0 mg/mouse IV; for Survival (%): control 0; for No. of Mice (dead/total): control 7/7; for Survival time: control 187 ± 70
Description: Reference tissue factor (Simplastin, 1 mg/mouse) was IV injected into ddY mice (male, 20-week-old, 38-45 g) incubated with or without peptide.
The anticoagulant activity of the RNIP peptides was studied in an acute animal model. Direct injection of tissue factor IV (Simplastin, 1 mg/mouse) produces acute intravascular coagulation and death within three minutes.
^a Tissue factor (Simplastin, 10 mg/ml was mixed with equal volume of
synthetic peptide 100 μg/ml or 50 μg/ml and 0.2 ml of the mixture
injected IV. ddY mice (20 weeks, 38-45 gm).

Pseudomonas aeruginosa = test: Antibacterial CFU assay; conditions: for IC50: read-out: anti-bacterial IC50 (CFU)
[4] = system: methicillin-sensitive Staphylococcus aureus; test: Antibacterial CFU assay; conditions: for IC50: read-out: IC50, inhibition of CFU

RNIP: reactive nitrogen inhibitory protein, amino acids 135-171 of SEQ ID NO:4 (rabbit CAP18 C-terminus); purified from granulocytes or synthetic (#197) (GLRKRLRKFRNKIKEKLKKIGQKIQGLLPKLAPRTDY)
MIC (minimal inhibitory concentration of LPS) (E. coli 0111:B4 LPS): 31.3 µg/mL | MIC (minimal inhibitory concentration of LPS) (E. coli 0127:B8 LPS): 62.5 µg/mL | MIC (minimal inhibitory concentration of LPS) (E. coli 055:B5 LPS): 62.5 µg/mL | MIC (minimal inhibitory concentration of LPS) (E. coli J5 LPS): 15.6 µg/mL | MIC (minimal inhibitory concentration of LPS) [1]: 62.5 µg/mL | MIC (minimal inhibitory concentration of LPS) [2]: 15.6 µg/mL | MIC (minimal inhibitory concentration of LPS) [3]: 62.5 µg/mL | IC50 (Human plasma): 300 nM | IC50, Prothrombin time (Human plasma): 1.9 µg/mL | inhibition of prothrombin time (PT), words (Human plasma): inhibited | IC50, factor II activated by Xa (prothrombin (factor II)): 2.8 µg/mL | Survival (%) (ddY mice; Peptide #197 5 μg/mouse): 43% | No. of Mice (dead/total) (ddY mice; Peptide #197 5 μg/mouse): 4/7 | Survival time (ddY mice; Peptide #197 5 μg/mouse): 228 ± 48 s | Survival (%) (ddY mice; Peptide #197 10 μg/mouse, p < 0.05): 57% | No. of Mice (dead/total) (ddY mice; Peptide #197 10 μg/mouse): 3/7 | Survival time (ddY mice; Peptide #197 10 μg/mouse): 305 s | reduction of mortality (ddY mice; tissue factor IV 1 mg/mouse): 57% | anti-bacterial IC50 (CFU) (Pseudomonas aeruginosa; FIG. 6E): < 250 µg/mL | IC50 (Pseudomonas aeruginosa): < 40 nM | IC50, inhibition of CFU [4]: 0.94 µg/mL | IC50 [4]: 150 nM

36-1: synthetic rabbit RNIP-derived fragment, amino acids 135-166 of SEQ ID NO:4 (GLRKRLRKFRNKIKEKLKKIGQKIQGLLPKLA)
MIC (minimal inhibitory concentration of LPS) (E. coli 0111:B4 LPS): 15.6 µg/mL | MIC (minimal inhibitory concentration of LPS) (E. coli 0127:B8 LPS): 15.6 µg/mL | MIC (minimal inhibitory concentration of LPS) (E. coli 055:B5 LPS): 15.6 µg/mL | MIC (minimal inhibitory concentration of LPS) (E. coli J5 LPS): 7.8 µg/mL | MIC (minimal inhibitory concentration of LPS) [1]: 31.3 µg/mL | MIC (minimal inhibitory concentration of LPS) [2]: 3.9 µg/mL | MIC (minimal inhibitory concentration of LPS) [3]: 15.6 µg/mL | IC50, Prothrombin time (Human plasma): 2.0 µg/mL | inhibition of prothrombin time (PT), words (Human plasma): inhibited | IC50, factor II activated by Xa (prothrombin (factor II)): < 1.8 µg/mL | IC50 (prothrombin (factor II); read-out: IC50, factor II activated by Xa): < 300 nM | anti-bacterial IC50 (CFU) (Pseudomonas aeruginosa): < 0.25 µg/mL | IC50 (Pseudomonas aeruginosa): < 50 nM | IC50, inhibition of CFU [4]: 0.58 µg/mL | IC50 [4]: 110 nM
